Reference: patent US12595269B2, “Morpholine-like monoamine releasers” (Solvonis Therapeutics Ireland Holdings Limited, priority 2022, dated 2026)
≈ marks a conversion by molar mass, not a printed value.

How the values were obtained:
[1] = Solubility in PBS pH 7.4 by HPLC-UV; assay type: physicochemical; details: PBS buffer, aqueous buffer, kinetic from dmso stock; PBS pH 7.4, about 2% DMSO, 120 minutes at room temperature
Experimental: Methods and Procedure: This study was designed in compliance with previously described procedures to assure data integrity and adherence to GLP principles. Control compounds included ibuprofen as a reference for high solubility and progesterone as a reference for low solubility. Stock solutions of compounds described herein (20 mM) were prepared in DMSO, on the same day of the experiment when feasible.
These solutions were compared with an external standard solution of known concentration via HPLC-UV To prepare the standard, 4 μL from a 20 mM compound stock solution was added to DMSO in a vial/well, and mixed with shaking at room temperature for 10 minutes. […]
Concentrations were determined by comparing UV absorbance of the test solution and of the known standard solution following HPLC separation using a generic fast gradient method employing a DAD detector and UV detection at 230 and 254 nm. […] The solubility of each compound was expressed as the ratio of compound amount in the sample test solution to the amount of compound in the standard solution, calculated from the equation “solubility of sample=peak area of sample/peak area of standard×concentration of standard.”

[2] = target: T1, CYP2C9 (Homo sapiens, UniProt P11712); assay: CYP450 inhibition, fluorescent probe, recombinant microsomes: CYP2C9; assay type: in vitro ADME
T1 construct: host or cells: recombinant microsomes
Experimental: Methods and Procedure: The study was performed in agreement with previously described procedures to assure data integrity and adherence to GLP standards. Briefly, recombinant human CYP450 isoenzymes were used to metabolize pro-fluorescent probe substrates to fluorescent products. IC50 values determined from the effect of test compounds on the metabolism of these probe substrates were then used to determine inhibitory potency against CYP450 isoforms.
The test system was based on a three-step procedure with a “mix and read” format, where PGP-432,TI reaction and reading were performed at 37° C. […] Fluorescence was measured in kinetic mode (1 read/minutes for 10 minutes), and the fluorescence rate was calculated. […]
Microsomes were added to the buffer prior to the substrate addition. […] For fluorescence measurement, 10 μL/well of the test compounds were transferred from the compound plate to the assay plate using Biomek FX and the appropriate protocol. […]
10 μL/well of the cofactor was then added to the assay plate using the Multidrop before placing the assay plate in the plate reader EnVision to measure fluorescence. […]
Next, 10 μL/well from the compound plate was added and incubated for 10 minutes at 37° C. on a plate shaker, while a mixture of Vivid Substrate and Vivid NADP+ in Vivid CYP450 Reaction Buffer was prepared. […] Regarding data analysis, the inhibition effect is expressed as a percentage. […]

T1 sequence (P11712 whole entry): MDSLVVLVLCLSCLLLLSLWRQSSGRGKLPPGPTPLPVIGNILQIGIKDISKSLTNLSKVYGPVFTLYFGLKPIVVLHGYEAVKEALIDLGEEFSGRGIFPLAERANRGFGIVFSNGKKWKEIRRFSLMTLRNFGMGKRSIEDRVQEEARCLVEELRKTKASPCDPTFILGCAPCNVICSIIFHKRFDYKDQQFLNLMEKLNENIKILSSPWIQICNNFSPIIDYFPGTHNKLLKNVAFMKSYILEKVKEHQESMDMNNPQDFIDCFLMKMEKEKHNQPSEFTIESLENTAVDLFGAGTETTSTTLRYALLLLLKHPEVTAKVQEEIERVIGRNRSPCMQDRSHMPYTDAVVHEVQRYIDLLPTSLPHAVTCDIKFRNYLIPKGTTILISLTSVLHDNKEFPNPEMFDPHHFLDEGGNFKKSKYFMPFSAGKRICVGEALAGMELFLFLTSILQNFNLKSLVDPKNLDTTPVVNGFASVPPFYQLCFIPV

| SMILES | solubility at 120 min [1] [µM] | IC50 ([2]; recombinant human CYP2C9) [µM] | IC50 at 10 min ([2]; human, recombinant microsomes expressing CYP2C9) [µM] |
| --- | --- | --- | --- |
| Clc1ccc(C23CNC(CO2)C3)cc1Cl (stereo not shown) [522A, 1-(3,4-dichlorophenyl)-2-oxa-5-azabicyclo[2.2.1]heptane] | 384 (≈ 93.6 µg/mL) | > 50 | – |
| CNC(C)Cc1ccc2c(c1)OCO2 (stereo not shown) [MDMA, reference compound] | 386 (≈ 74.6 µg/mL) | – | 50 |
